Experimental data as given in US8722849B2, “Polypeptides” (Novo Nordisk A/S, priority 2011, dated 2014).
In brackets after ≈: the same amount, converted by molar mass. Like-named read-outs stand apart in the source and are kept apart here. Starred links: 1 amine or outer side, 2 acyl side, 3 side chain; linkers in the order of their positions; H or OH if unused. Positions of bridges follow the written chain, without caps; N, C: chain ends. Residues, ends and D or L forms follow the SMILES beside them. *: point of attachment. C20 diacid = O=C(O)CCCCCCCCCCCCCCCCCCC(=O)*; γGlu = O=C(O)[C@H](CCC(=O)[*:2])N[*:1]

Assays:
[1] = biological target: T1, rat amylin 3(a) receptor (rat calcitonin(a) receptor + rat RAMP3) (Rattus norvegicus, UniProt P32214+Q9JJ73); experiment: Assay (II)b functional cAMP FlashPlate assay, rat amylin receptor; assay type: cell-based; conditions: Table 11
T1 construct: expressed in transfected cells; host or cells: BHK tk'ts 13
T1 sequence (P32214 25-479 isoform P32214-2 limits assumed): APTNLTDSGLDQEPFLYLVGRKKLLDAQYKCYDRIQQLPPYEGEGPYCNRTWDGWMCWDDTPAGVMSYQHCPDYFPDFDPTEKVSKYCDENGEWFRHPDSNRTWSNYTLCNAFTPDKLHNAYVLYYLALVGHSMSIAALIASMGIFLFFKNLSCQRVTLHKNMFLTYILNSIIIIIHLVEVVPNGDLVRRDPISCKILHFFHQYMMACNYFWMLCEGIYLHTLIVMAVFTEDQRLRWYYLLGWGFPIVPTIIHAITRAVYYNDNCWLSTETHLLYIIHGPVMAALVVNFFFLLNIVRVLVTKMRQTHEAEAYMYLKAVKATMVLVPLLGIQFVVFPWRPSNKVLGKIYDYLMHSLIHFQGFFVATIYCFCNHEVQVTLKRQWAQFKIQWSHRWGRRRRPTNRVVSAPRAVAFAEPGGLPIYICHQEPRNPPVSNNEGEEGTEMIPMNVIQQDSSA
T1 sequence (Q9JJ73 23-147 partner): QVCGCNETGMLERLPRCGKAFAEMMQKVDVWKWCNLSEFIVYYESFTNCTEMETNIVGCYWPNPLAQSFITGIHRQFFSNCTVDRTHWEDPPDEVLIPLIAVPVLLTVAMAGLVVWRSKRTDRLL
Excerpt: (§1) Assay (II)b—Rat Calcitonin and Rat Amylin Receptor Assays
(§2) Activation of calcitonin and amylin (coexpression of calcitonin receptor and receptor activity modifying proteins (RAMP)) receptors lead to increased intracellular concentrations of cAMP. In order to quantify the cAMP levels in transiently transfected cells the Adenylyl Cyclase Activation FlashPlate® Assay from […] was used. The basic principle of the FlashPlate® Assay is a competition between radioactive and non-radioactive cAMP generated by the cells for a fixed number of binding sites.
(§3) Construction of rat calcitonin(a)—and rat amylin 3(a)-receptor cells.
(§4) BHK tk'ts 13 cells were transiently transfected with either rat calcitonin (a) receptor or amylin 3 (a) receptor (rat calcitonin(a) receptor+ rat RAMP3) using FuGENE® 6 (ROCHE), according to the manufacturers recommendations.
(§5) 24 hours after transient transfection the cells (rat calcitonin(a)—or rat amylin 3(a)—receptor cells) were added (100.000 cells/well) to the 96 well FlashPlates® with samples or standard in FlashPlate stimulation buffer with IBMX and incubated for 30 min. Detection mix was created according to manufacturers protocol and scintillation measured after 3 h of incubation on TopCounter™ (Packard).

[2] = biological target: T2, rat calcitonin (a) receptor (Rattus norvegicus, UniProt P32214); experiment: Assay (II)b functional cAMP FlashPlate assay, rat calcitonin receptor; assay type: cell-based; conditions: Table 11; read-out: CTa receptor rat EC50
T2 construct: expressed in transfected cells; host or cells: BHK tk'ts 13
T2 sequence (P32214 25-479 isoform P32214-2 limits assumed): T1 sequence (P32214 25-479 isoform P32214-2 limits assumed)
Excerpt: as §1, §2, §3, §4, §5

[3] = Assay (IV) determination of solubility; assay type: physicochemical
Method in brief: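 Stock ~500 nmol/ml in water; 1:1 with 100 mM buffer, pH 3.0–8.0 (glycylglycine ≤5.0, bistrispropane ≥6.0); 18 h RT; spin; HPLC quantitation of soluble polypeptide.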

[4] = biological target: T3, human calcitonin receptor (Homo sapiens, UniProt P30988); experiment: Assay (II)a functional CRE-luciferase assay, human calcitonin receptor; assay type: cell-based; conditions: Table 7; human calcitonin (CTa) receptor
T3 construct: expressed in transfected cells; host or cells: BHK570
T3 sequence (P30988 25-474): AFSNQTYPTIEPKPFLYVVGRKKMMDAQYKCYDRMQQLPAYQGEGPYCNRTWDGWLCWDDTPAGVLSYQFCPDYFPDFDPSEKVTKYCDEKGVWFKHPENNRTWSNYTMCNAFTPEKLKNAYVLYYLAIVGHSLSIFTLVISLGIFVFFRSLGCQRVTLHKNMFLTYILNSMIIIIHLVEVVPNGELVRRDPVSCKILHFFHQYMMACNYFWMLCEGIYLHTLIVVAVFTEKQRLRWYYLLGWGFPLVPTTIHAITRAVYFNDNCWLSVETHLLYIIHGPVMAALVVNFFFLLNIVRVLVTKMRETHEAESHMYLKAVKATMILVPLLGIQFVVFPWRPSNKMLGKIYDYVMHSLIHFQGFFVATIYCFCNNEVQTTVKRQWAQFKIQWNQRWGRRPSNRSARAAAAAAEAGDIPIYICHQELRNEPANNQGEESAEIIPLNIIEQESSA

[5] = biological target: T4, human amylin receptor (amylin 3(a) receptor: human calcitonin receptor + RAMP-3) (Homo sapiens, UniProt O60896+P30988); experiment: Assay (II)a functional CRE-luciferase assay, human amylin receptor; assay type: cell-based; conditions: Table 2; BHK amylin 3(a)-receptor/CRE-luc cells
T4 construct: expressed in transfected cells; host or cells: BHK570
T4 sequence (P30988 25-474): T3 sequence (P30988 25-474)
T4 sequence (O60896 24-148 partner): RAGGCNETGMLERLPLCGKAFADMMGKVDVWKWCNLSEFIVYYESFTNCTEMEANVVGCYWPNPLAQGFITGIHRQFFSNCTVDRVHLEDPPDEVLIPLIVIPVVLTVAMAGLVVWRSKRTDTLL

[6] = bistrispropane buffer, pH 6, pH 6.0, read-out: Solubility pH 6.0
[7] = bistrispropane buffer, pH 6.5, pH 6.5, read-out: Solubility pH 6.5
[8] = bistrispropane buffer, pH 7.5, pH 7.5, read-out: Solubility pH 7.5
[9] = bistrispropane buffer, pH 8, pH 8.0, read-out: Solubility pH 8.0
[10] = glycylglycine buffer, pH 3, pH 3.0, read-out: Solubility pH 3.0
[11] = glycylglycine buffer, pH 4, pH 4.0, 18 hours at room temperature, Table 2, read-out: Solubility pH 4.0
[12] = glycylglycine buffer, pH 4, pH 4.0, read-out: Solubility pH 4.0
[13] = glycylglycine buffer, pH 5, pH 5.0, read-out: Solubility pH 5.0

Work on `CC[C@H](C)[C@H](NC(=O)[C@@H]1CCCN1C(=O)CNC(=O)[C@H](Cc1ccccc1)NC(=O)[C@H](CC(N)=O)NC(=O)[C@H](CC(N)=O)NC(=O)[C@H](CO)NC(=O)[C@H](CO)NC(=O)[C@H](Cc1cnc[nH]1)NC(=O)[C@H](CCCNC(=N)N)NC(=O)[C@H](CC(C)C)NC(=O)[C@H](Cc1ccccc1)NC(=O)[C@H](CCC(=O)O)NC(=O)[C@H](C)NC(=O)[C@H](CC(C)C)NC(=O)[C@H](CCCNC(=N)N)NC(=O)[C@H](CCC(N)=O)NC(=O)[C@@H](NC(=O)[C@H](C)NC(=O)[C@@H]1CSSC[C@H](NC(=O)[C@H](Cc2cnc[nH]2)NC(=O)[C@H](Cc2cnc[nH]2)NC(=O)[C@H](Cc2cnc[nH]2)NC(=O)CC[C@H](NC(=O)CCCCCCCCCCCCCCCCCCC(=O)O)C(=O)O)C(=O)N[C@@H](CC(N)=O)C(=O)N[C@@H]([C@@H](C)O)C(=O)N[C@@H](C)C(=O)N[C@@H]([C@@H](C)O)C(=O)N1)[C@@H](C)O)C(=O)N[C@@H](CC(C)C)C(=O)N1CCC[C@H]1C(=O)N1CCC[C@H]1C(=O)N[C@H](C(=O)N[C@@H](CC(N)=O)C(=O)N[C@H](C(=O)NCC(=O)N[C@@H](CO)C(=O)N[C@@H](CC(N)=O)C(=O)N[C@H](C(=O)N[C@@H](Cc1ccc(O)cc1)C(N)=O)[C@@H](C)O)C(C)C)[C@@H](C)O` [Example 12, N-alpha-[(S)-4-Carboxy-4-(19-carboxynonadecanoylamino)butyryl]-His-His-[His1,Glu14,Arg17]-pramlintide] ({C20 diacid-γGlu}-HHHCNTATCATQRLAEFLRHSSNNFGPILPPTNVGSNTY-NH2; disulfide 4-9) yielded an EC50 [1] of 0.082 nM, an EC50 [2] of 6.76 nM and a solubility at 18 h [3, 6] of over 200 µM. It also gave a solubility at 18 h [3, 7] of 45 µM (≈ 214 µg/mL), a solubility at 18 h [3, 8] of 26 µM (≈ 124 µg/mL) and a solubility at 18 h [3, 9] of 69 µM (≈ 328 µg/mL). For the same compound, the solubility at 18 h [3, 10] was over 200 µM, the solubility at 18 h [3, 11] was over 200 µM and the solubility at 18 h [3, 12] was over 200 µM. It also gave a solubility at 18 h [3, 13] of over 200 µM, a solubility at 18 h ([3]; pH 7.0, read-out: Solubility pH 7.0) of 9 µM (≈ 42.8 µg/mL) and an EC50 [4] of 0.409 nM. It also gave an EC50 [5] of 0.0775 nM.

Compound `CC[C@H](C)[C@H](NC(=O)[C@@H]1CCCN1C(=O)CNC(=O)[C@H](Cc1ccccc1)NC(=O)[C@H](CC(N)=O)NC(=O)[C@H](CC(N)=O)NC(=O)[C@H](CO)NC(=O)[C@H](CO)NC(=O)[C@H](Cc1cnc[nH]1)NC(=O)[C@H](Cc1cnc[nH]1)NC(=O)[C@H](CC(C)C)NC(=O)[C@H](Cc1ccccc1)NC(=O)[C@H](CCC(=O)O)NC(=O)[C@H](C)NC(=O)[C@H](CC(C)C)NC(=O)[C@H](CCCNC(=N)N)NC(=O)[C@H](CCC(N)=O)NC(=O)[C@@H](NC(=O)[C@H](C)NC(=O)[C@@H]1CSSC[C@H](NC(=O)[C@H](Cc2cnc[nH]2)NC(=O)[C@H](Cc2cnc[nH]2)NC(=O)CC[C@H](NC(=O)CCCCCCCCCCCCCCCCCCC(=O)O)C(=O)O)C(=O)N[C@@H](CC(N)=O)C(=O)N[C@@H]([C@@H](C)O)C(=O)N[C@@H](C)C(=O)N[C@@H]([C@@H](C)O)C(=O)N1)[C@@H](C)O)C(=O)N[C@@H](CC(C)C)C(=O)N1CCC[C@H]1C(=O)N1CCC[C@H]1C(=O)N[C@H](C(=O)N[C@@H](CC(N)=O)C(=O)N[C@H](C(=O)NCC(=O)N[C@@H](CO)C(=O)N[C@@H](CC(N)=O)C(=O)N[C@H](C(=O)N[C@@H](Cc1ccc(O)cc1)C(N)=O)[C@@H](C)O)C(C)C)[C@@H](C)O` [Example 17, N-alpha-[(S)-4-Carboxy-4-(19-carboxynonadecanoylamino)butyryl]-His-[His1,Glu14,His17]-pramlintide] ({C20 diacid-γGlu}-HHCNTATCATQRLAEFLHHSSNNFGPILPPTNVGSNTY-NH2; disulfide 3-8) has an EC50 [1] of 0.147 nM, an EC50 [2] of 0.221 nM and a solubility at 18 h [3, 6] of 160 µM (≈ 736 µg/mL). It also gave a solubility at 18 h [3, 7] of 66 µM (≈ 304 µg/mL), a solubility at 18 h ([3]; bistrispropane buffer, pH 7, pH 7.0, read-out: Solubility pH 7.0) of 88 µM (≈ 405 µg/mL) and a solubility at 18 h [3, 8] of over 200 µM. The solubility at 18 h [3, 9] was over 200 µM, the solubility at 18 h [3, 10] was over 200 µM and the solubility at 18 h [3, 11] was over 200 µM. The solubility at 18 h [3, 12] was over 200 µM, the solubility at 18 h [3, 13] was over 200 µM and the EC50 [4] was 0.166 nM. For the same compound, the EC50 [5] was 0.111 nM.
